Results on eleven compounds are retold here after US8278262B2, “Use of microproteins as tryptase inhibitors” (BioNTech AG, priority 2004, dated 2012).

In assay [1] the target is T1, bovine trypsin (Bos taurus, UniProt P00760).
T1 construct: purchased Serva
T1 sequence (P00760 24-246): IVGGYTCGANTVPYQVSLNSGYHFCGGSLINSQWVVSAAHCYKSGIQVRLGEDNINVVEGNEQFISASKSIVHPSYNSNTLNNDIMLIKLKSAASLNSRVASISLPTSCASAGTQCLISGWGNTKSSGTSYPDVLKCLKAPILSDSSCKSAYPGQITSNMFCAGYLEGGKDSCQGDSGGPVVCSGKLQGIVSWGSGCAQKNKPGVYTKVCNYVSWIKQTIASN
Briefly: Trypsin inhibition with substrate Boc-Leu-Gly-Arg-pNA (Example 4). Type of assay: biochemical. The following applies: as barnase′ fusion proteins. The procedure: The inhibitory activity of the protein variants was measured according to van Nostrand et al. (1990) and Sinha et al. (1991). The remaining activity of bovine trypsin (Serva) was determined after incubation with the respective inhibitor for 10 min at 37° C. by monitoring hydrolysis of the chromogenic substrate Boc-Leu-Gly-Arg-pNA (Bachem, solubilized in Me2SO) at 405 nm. Assays were performed in a final volume of 100 μl in 50 mM Tris-HCl, pH 7.5, 150 mM NaCl, 5 mM CaCl2 at 37° C. containing 5 nM of trypsin, […] and varying amounts of inhibitor (10^−10-10^−6 M). For calculation of Kiapp-values, vmax values were determined and the curve fitting tool of SigmaPlot (Jandel Scientific) was applied on the basis of the following formula, that describes the case of competitive tight binding inhibitors (Morrison, 1969):
[formula] vi=vmax value of inhibited reaction v0=vmax value of uninhibited reaction [Et]=total enzyme concentration (free and in complex) [It]=total inhibitor concentration (free and in complex) Kiapp=apparent dissociation constant of the enzyme-inhibitor complex. Results and Discussion Choice of Carrier Protein and Production Strategy

In assay [2] the target is β3-Tryptase (Homo sapiens, UniProt P20231). Put plainly: Kiapp determination with tryptase (Example 3). It counts as biochemical. On the procedure: Tryptase (0.2 nM) was preincubated with McoTi-KVV (0-34 nM) at 37 degree C. for 60 min, and the reaction was initiated by the addition of substrate tos-Gly-Pro-Arg-AMC. The residual steady state velocities were measured over 10 min and are expressed in % of the activity measured in the absence of the inhibitor.
Tryptase (0.2 nM) was preincubated with MCoEeTI (0-1950 nM) at 37 degree C. for 60 min, and the reaction was initiated by the addition of substrate tos-Gly-Pro-Arg-AMC. The residual steady state velocities were measured over 10 min and are expressed in % of the activity measured in the absence of the inhibitor.

For assay [3], the target named is Tryptase β-Ia (Homo sapiens, UniProt Q15661). Put plainly: biochemical.
Assay [4] has as its target Faktor XA (Homo sapiens, UniProt P00742). Put plainly: biochemical.
Assay [5] addresses tPA (Homo sapiens, UniProt P00750). Briefly: biochemical.
Assay [6] concerns the target pK1. Briefly: Protease selectivity, Kiapp. It counts as biochemical. The following applies: Human.
Assay [7] deals with Trypsin (Sus scrofa, UniProt P00761). Put plainly: biochemical.
Assay [8] has as its target Plasmin (Homo sapiens, UniProt P00747). Briefly: biochemical.
The target in assay [9] is Thrombin (Homo sapiens, UniProt P00734). Put plainly: biochemical.
For assay [10], the target named is Elastase (Pankreas proteases) (Sus scrofa, UniProt P00772). Briefly: biochemical.
The target in assay [11] is Tryptase β-II (Homo sapiens, UniProt P20231). Briefly: biochemical.
Assay [12] deals with hK3 (Homo sapiens, UniProt P07288). Briefly: biochemical.
The target of assay [13] is Elastase (Neutrophiles) (Homo sapiens, UniProt P08246). Put plainly: biochemical.
The target in assay [14] is Cathepsin G (Homo sapiens, UniProt P08311). Briefly: biochemical.
Assay [15] concerns the target Tryptase ST2 (Ovis aries, UniProt Q9XSM2). Briefly: biochemical.
Assay [16] deals with Chymotrypsin. Briefly: Protease selectivity, Kiapp. It counts as biochemical. To be noted: Porcine.
Assay [17] has as its target tetrameric tryptase (Homo sapiens, UniProt P20231). The following applies: cited from earlier work.
Assay [18] deals with T2, Trypsin (Bos taurus, UniProt P00760).
T2 sequence (P00760 24-246): T1 sequence (P00760 24-246)
Put plainly: Kiapp determination with trypsin (Example 3). It counts as biochemical, bovine. The source says:
Therefore, bovine pancreatic trypsin was standardised by active-site titration using p-Nitrophenyl p′-guanidinobenzoate (Chase & Shaw, 1970).

Read-outs that look alike come from different tables or passages of the source. Bridge positions count the residues as written; N and C are the ends. Peptide text beside a SMILES is read from it. Bounds are passed on as bounds.

In the case of `CC[C@H](C)[C@@H]1NC(=O)[C@H](CCCCN)NC(=O)[C@@H]2CCCN2C(=O)[C@@H](NC(=O)[C@@H](NC(=O)[C@H](CO)NC(=O)CN)C(C)C)CSSC[C@@H]2NC(=O)CNC(=O)[C@H](C)NC(=O)[C@H](CC(C)C)NC(=O)[C@@H]3CSSC[C@@H](C(=O)NCC(=O)N[C@@H](CO)C(=O)O)NC(=O)[C@H](Cc4ccccc4)NC(=O)CNC(=O)[C@H](CC(N)=O)NC(=O)[C@@H]4CCCN4C(=O)CNC(=O)[C@H](CSSC[C@H](NC(=O)[C@H](CCCCN)NC(=O)[C@H](CCCCN)NC(=O)[C@H](CC(C)C)NC1=O)C(=O)N[C@@H](CCCNC(=N)N)C(=O)N[C@@H](CCCNC(=N)N)C(=O)N[C@@H](CC(=O)O)C(=O)N[C@@H](CO)C(=O)N[C@@H](CC(=O)O)C(=O)N3)NC(=O)[C@H](C(C)C)NC2=O` [MCoEeTI] (H-GSVCPKILKKCRRDSDCLAGCVCGPNGFCGS-OH; disulfide 4-21, 11-23, 17-29; N-terminus and C-terminus assumed), the “inhibition of bovine trypsin (in words)” value in assay [1] is “strong inhibitory activity”. Moreover, in [2], the Ki came out at 0.2 µM.

For the compound `CC[C@H](C)[C@@H]1NC(=O)[C@H](CCCCN)NC(=O)[C@@H]2CCCN2C(=O)[C@@H](NC(=O)[C@@H](NC(=O)CN)C(C)C)CSSC[C@@H]2NC(=O)CNC(=O)[C@H](C)NC(=O)[C@H](CC(C)C)NC(=O)[C@@H]3CSSC[C@@H](C(=O)NCC(=O)N[C@@H](CO)C(=O)O)NC(=O)[C@H](Cc4ccccc4)NC(=O)CNC(=O)[C@H](CC(N)=O)NC(=O)[C@@H]4CCCN4C(=O)CNC(=O)[C@H](CSSC[C@H](NC(=O)[C@H](CCCCN)NC(=O)[C@H](CCCCN)NC(=O)[C@H](CC(C)C)NC1=O)C(=O)N[C@@H](CCCNC(=N)N)C(=O)N[C@@H](CCCNC(=N)N)C(=O)N[C@@H](CC(=O)O)C(=O)N[C@@H](CO)C(=O)N[C@@H](CC(=O)O)C(=O)N3)NC(=O)[C@H](C(C)C)NC2=O` [SE-MG-0] (H-GVCPKILKKCRRDSDCLAGCVCGPNGFCGS-OH; disulfide 3-20, 10-22, 16-28; N-terminus and C-terminus assumed), the Ki in assay [3] is 0.07 µM; in assay [4] it was more than 1 µM; in [5], more than 1 µM; in assay [6], more than 1 µM; in [7], 0.0003 µM; in [8] it was approximately 0.6 µM. In addition, the Ki was 0.1 µM in assay [2]; more than 1 µM in assay [9]; more than 1 µM in assay [10]; 0.07 µM in [11]; more than 1 µM in assay [12]; more than 1 µM in assay [13]. Moreover, the Ki in assay [14] was more than 1 µM; in [15], 4 µM; in assay [16] it was more than 1 µM.

For EETI-II [reference compound], in assay [1], the “inhibition of bovine trypsin (in words)” value is “strong inhibitory activity”.

Regarding “LDTI: leech derived tryptase Inhibitor, a 46 residue Kazal-type protein (KKVCACPKILKPVCGSDGRTYANSCIARCNGVSIKSEGSCPTGILN; UniProt P80424 1-46, looked up)”, the results for the Ki in assay [17] (2 of the 4 catalytic sites of the tetrameric tryptase), in [17] (one of the remaining two sites) and in [17] (the other of the remaining two sites) were 0.0014 µM, 0.56 µM and 10 µM, respectively.

On to “MCoEeTI-3R-3: Barnase′-[…] (SEQ ID NO:4) (SSSMGVCPRILRRCRRDSDCLAGCVCGPNGFCGS; not fully specified)”, for which the Ki in [2] (read-out: Kiapp β3-Tryptase) is 0.03 µM; in assay [18], 0.0002 µM.

With “MCoEeTI-ARD-2: Barnase′-[…] (SEQ ID NO:39) (SSSMGVCPKILKACARDSDCLAGCVCGPNGFCGS; not fully specified)”, in [18], the Ki stood at 0.0002 µM.

For the compound “MCoEeTI-KKV-1: Ba′-[…] (SEQ ID NO:5) (SSSMGKKVGVCPKILKKCRRDSDCLAGCVCGPNGFCGS; not fully specified)”, the Ki in assay [2] (read-out: Kiapp β3-Tryptase) was found to be 0.02 µM; in [18], 0.0002 µM.

As to “MCoEeTI-LKA-7: Bar′-[…] (SEQ ID NO:40) (SSSMGVCPKILKACRRDSDCLAGCVCGPNGFCGS; not fully specified)”, the Ki in [18] is 0.0002 µM.

“MCoEeTI-QRT-7: Barnase′-[…] (SEQ ID NO:38) (SSSMGVCPRNRQRCRRDSDCLAGCVCTNNKFCGS; not fully specified)” came in with a Ki in assay [18] of 0.001 µM.

Consider “MCoEeTI-T-1: Barnase′-[…] (SEQ ID NO:6) (SSSMGVCPKILKKCRRDSDCLAGCVCTNNKFCGS; not fully specified)”, for which the Ki in assay [2] (read-out: Kiapp β3-Tryptase) amounted to 0.15 µM; in [18], 0.0001 µM.

Take “SE-BMG-0: Barnase′-[…] (SEQ ID NO:3) (SSSMGVCPKILKKCRRDSDCLAGCVCGPNGFCGS; not fully specified)”: the Ki was 0.1 µM in assay [2] (read-out: Kiapp β3-Tryptase) and 0.0002 µM in assay [18].
